Source: ChEMBL document CHEMBL3885881, “DrugMatrix”
“And” between values parts separate entries of the source, which are not always exact repeats. Equal values may be shown once.

Species on record: Rattus norvegicus
Experiment: DrugMatrix - Regimen: Daily Repeat
Assay type: toxicity, organism-based, Sprague-Dawley
Set-up: regimen Daily Repeat, gender Male, age 6-8 weeks
Conditions: in vivo, ip, route intraperitoneal, vehicle 100 % SALINE; for ABSOLUTE BASOPHIL / ABSOLUTE EOSINOPHIL / ABSOLUTE LYMPHOCYTE / ABSOLUTE MONOCYTE / ABSOLUTE SEGMENTED NEUTROPHIL / BASOPHIL / EOSINOPHIL / ERYTHROCYTE COUNT / HEMATOCRIT / HEMOGLOBIN / LEUKOCYTE COUNT / LYMPHOCYTE / MEAN CORPUSCULAR HEMOGLOBIN / MEAN CORPUSCULAR HEMOGLOBIN CONCENTRATION / MEAN CORPUSCULAR VOLUME / MONOCYTE / NEUTROPHIL / PLATELET COUNT: tissue Blood; for ALANINE AMINOTRANSFERASE / ALBUMIN / ALKALINE PHOSPHATASE / ASPARTATE AMINOTRANSFERASE / BLOOD UREA NITROGEN / CARBON DIOXIDE / CHOLESTEROL / CREATINE PHOSPHOKINASE / CREATININE / GLUCOSE / LACTATE DEHYDROGENASE / LIPASE / PHOSPHORUS / POTASSIUM / SODIUM / TOTAL BILIRUBIN / TOTAL PROTEIN / URIC ACID / CHLORIDE: tissue Plasma
[1] = 0 mg/kg, 120 h, dose level Control, time 5 day
[2] = 0 mg/kg, […], dose level Control, time 14 day
[3] = 0 mg/kg, […], dose level Control, time 28 day
[4] = 8 mg/kg, 120 h, dose level High, time 5 day
[5] = 8 mg/kg, […], dose level High, time 14 day
[6] = 8 mg/kg, […], dose level High, time 28 day

GOLD SODIUM THIOMALATE
ABSOLUTE BASOPHIL [1]: 32 cells/µL
ABSOLUTE EOSINOPHIL [1]: 110 cells/µL
ABSOLUTE LYMPHOCYTE [1]: 6630 cells/µL
ABSOLUTE MONOCYTE [1]: 140 cells/µL
ABSOLUTE SEGMENTED NEUTROPHIL [1]: 1170 cells/µL
BASOPHIL [1]: 0.38% and 0.35%
EOSINOPHIL [1]: 1.28% and 0.62%
ERYTHROCYTE COUNT [1]: 7.45 x10E6/uL and 7.26 x10E6/uL
HEMATOCRIT [1]: 45.74% and 47.97%
HEMOGLOBIN [1]: 14.72 G/DL and 15.38 G/DL
LEUKOCYTE COUNT [1]: 8.11 x10E3/uL and 8.68 x10E3/uL
LYMPHOCYTE [1]: 81.3% and 86.77%
MEAN CORPUSCULAR HEMOGLOBIN [1]: 19.76 pg and 21.18 pg
MEAN CORPUSCULAR HEMOGLOBIN CONCENTRATION [1]: 32.16 G/DL and 32.05 G/DL
MEAN CORPUSCULAR VOLUME [1]: 61.38 fL and 66.15 fL
MONOCYTE [1]: 1.76% and 1.57%
NEUTROPHIL [1]: 14.9% and 9.53%
PLATELET COUNT [1]: 1322.4 x10E3/uL and 1786 x10E3/uL
ALANINE AMINOTRANSFERASE [1]: 25.8 u/L and 20.5 u/L
ALBUMIN [1]: 3.64 G/DL and 4.35 G/DL
ALKALINE PHOSPHATASE [1]: 300 u/L
ASPARTATE AMINOTRANSFERASE [1]: 81.4 u/L and 86.75 u/L
BLOOD UREA NITROGEN [1]: 14.4 mg/dL and 17 mg/dL
CARBON DIOXIDE [1]: 29 mmol/L
CHOLESTEROL [1]: 69.2 mg/dL and 51.25 mg/dL
CREATINE PHOSPHOKINASE [1]: 303.2 u/L and 384.75 u/L
CREATININE [1]: 0.56 mg/dL and 0.47 mg/dL
GLUCOSE [1]: 125.4 mg/dL and 128.75 mg/dL
LACTATE DEHYDROGENASE [1]: 105.4 u/L and 145 u/L
LIPASE [1]: 22.4 u/L and 13.25 u/L
PHOSPHORUS [1]: 11.8 mg/dL
POTASSIUM [1]: 5.52 MEQ/L and 6.58 MEQ/L
SODIUM [1]: 147 MEQ/L and 151 MEQ/L
TOTAL BILIRUBIN [1]: 0.2 mg/dL and 0.33 mg/dL
TOTAL PROTEIN [1]: 6.1 G/DL and 6.53 G/DL
URIC ACID [1]: 1.06 mg/dL and 1.95 mg/dL
ABSOLUTE BASOPHIL [2]: 130 cells/µL
ABSOLUTE EOSINOPHIL [2]: 140 cells/µL
ABSOLUTE LYMPHOCYTE [2]: 13500 cells/µL
ABSOLUTE MONOCYTE [2]: 400 cells/µL
ABSOLUTE SEGMENTED NEUTROPHIL [2]: 2330 cells/µL
HEMATOCRIT [2]: 45.98%
HEMOGLOBIN [2]: 15.17 G/DL
MEAN CORPUSCULAR VOLUME [2]: 59.4 fL
NEUTROPHIL [2]: 14.14%
ABSOLUTE BASOPHIL [3]: 91 cells/µL
ABSOLUTE EOSINOPHIL [3]: 110 cells/µL
ABSOLUTE LYMPHOCYTE [3]: 9910 cells/µL
ABSOLUTE MONOCYTE [3]: 210 cells/µL
ABSOLUTE SEGMENTED NEUTROPHIL [3]: 1560 cells/µL
BASOPHIL [3]: 0.77%
EOSINOPHIL [3]: 0.92%
ERYTHROCYTE COUNT [3]: 8.21 x10E6/uL
HEMATOCRIT [3]: 47.53%
HEMOGLOBIN [3]: 15.65 G/DL
LEUKOCYTE COUNT [3]: 11.91 x10E3/uL
LYMPHOCYTE [3]: 83.34%
MEAN CORPUSCULAR HEMOGLOBIN [3]: 19.07 pg
MEAN CORPUSCULAR HEMOGLOBIN CONCENTRATION [3]: 32.93 G/DL
MEAN CORPUSCULAR VOLUME [3]: 57.9 fL
MONOCYTE [3]: 1.68%
NEUTROPHIL [3]: 12.97%
PLATELET COUNT [3]: 1323.8 x10E3/uL
ALBUMIN [2]: 3.66 G/DL
CARBON DIOXIDE [2]: 25 mmol/L
CHLORIDE [2]: 107 MEQ/L
CREATINE PHOSPHOKINASE [2]: 410.25 u/L
SODIUM [2]: 149.2 MEQ/L
URIC ACID [2]: 0.94 mg/dL
ALANINE AMINOTRANSFERASE [3]: 30 u/L
ALBUMIN [3]: 3.71 G/DL
ALKALINE PHOSPHATASE [3]: 186.8 u/L
ASPARTATE AMINOTRANSFERASE [3]: 78.2 u/L
BLOOD UREA NITROGEN [3]: 14.2 mg/dL
CHOLESTEROL [3]: 44.9 mg/dL
CREATINE PHOSPHOKINASE [3]: 334.3 u/L
CREATININE [3]: 0.6 mg/dL
GLUCOSE [3]: 147.2 mg/dL
LACTATE DEHYDROGENASE [3]: 123.1 u/L
LIPASE [3]: 9.6 u/L
PHOSPHORUS [3]: 10.01 mg/dL
POTASSIUM [3]: 6.57 MEQ/L
SODIUM [3]: 149.5 MEQ/L
TOTAL BILIRUBIN [3]: 0.21 mg/dL
TOTAL PROTEIN [3]: 6.66 G/DL
URIC ACID [3]: 1.26 mg/dL
ABSOLUTE BASOPHIL [4]: 130 cells/µL
ABSOLUTE EOSINOPHIL [4]: 56 cells/µL
ABSOLUTE LYMPHOCYTE [4]: 9210 cells/µL
ABSOLUTE MONOCYTE [4]: 260 cells/µL
ABSOLUTE SEGMENTED NEUTROPHIL [4]: 1220 cells/µL
BASOPHIL [4]: 1.14% and 0.55%
EOSINOPHIL [4]: 0.52% and 0.85%
ERYTHROCYTE COUNT [4]: 7.23 x10E6/uL and 7.38 x10E6/uL
HEMATOCRIT [4]: 44.18% and 47.65%
LEUKOCYTE COUNT [4]: 10.96 x10E3/uL and 5.99 x10E3/uL
LYMPHOCYTE [4]: 83.86% and 79.83%
MEAN CORPUSCULAR HEMOGLOBIN [4]: 19.96 pg and 20.48 pg
MEAN CORPUSCULAR HEMOGLOBIN CONCENTRATION [4]: 32.6 G/DL and 31.73 G/DL
MEAN CORPUSCULAR VOLUME [4]: 64.58 fL
MONOCYTE [4]: 2.34% and 2.35%
NEUTROPHIL [4]: 11.32% and 14.95%
PLATELET COUNT [4]: 1423.2 x10E3/uL and 1443.75 x10E3/uL
ALANINE AMINOTRANSFERASE [4]: 32.8 u/L and 21 u/L
ALBUMIN [4]: 3.28 G/DL
ALKALINE PHOSPHATASE [4]: 176.2 u/L and 278.5 u/L
ASPARTATE AMINOTRANSFERASE [4]: 100.4 u/L and 71 u/L
BLOOD UREA NITROGEN [4]: 18.2 mg/dL and 15.25 mg/dL
CARBON DIOXIDE [4]: 27 mmol/L
CHLORIDE [4]: 106.6 MEQ/L and 106.75 MEQ/L
CHOLESTEROL [4]: 68.4 mg/dL and 52.25 mg/dL
CREATINE PHOSPHOKINASE [4]: 159.5 u/L and 253 u/L
CREATININE [4]: 0.52 mg/dL and 0.45 mg/dL
GLUCOSE [4]: 124.5 mg/dL
LACTATE DEHYDROGENASE [4]: 57.5 u/L and 107.5 u/L
LIPASE [4]: 28.8 u/L and 9.75 u/L
PHOSPHORUS [4]: 9.6 mg/dL and 11.85 mg/dL
POTASSIUM [4]: 5.78 MEQ/L and 5.65 MEQ/L
SODIUM [4]: 150.8 MEQ/L and 151.5 MEQ/L
TOTAL BILIRUBIN [4]: 0.18 mg/dL and 0.32 mg/dL
TOTAL PROTEIN [4]: 5.68 G/DL and 6.25 G/DL
URIC ACID [4]: 1.38 mg/dL and 2.12 mg/dL
ABSOLUTE BASOPHIL [5]: 34 cells/µL
ABSOLUTE EOSINOPHIL [5]: 82 cells/µL
ABSOLUTE LYMPHOCYTE [5]: 8830 cells/µL
ABSOLUTE MONOCYTE [5]: 250 cells/µL
ABSOLUTE SEGMENTED NEUTROPHIL [5]: 1460 cells/µL
MEAN CORPUSCULAR HEMOGLOBIN [5]: 20.12 pg
ABSOLUTE BASOPHIL [6]: 110 cells/µL
ABSOLUTE EOSINOPHIL [6]: 71 cells/µL
ABSOLUTE LYMPHOCYTE [6]: 9610 cells/µL
ABSOLUTE MONOCYTE [6]: 180 cells/µL
ABSOLUTE SEGMENTED NEUTROPHIL [6]: 1180 cells/µL
BASOPHIL [6]: 0.95%
EOSINOPHIL [6]: 0.64%
ERYTHROCYTE COUNT [6]: 7.92 x10E6/uL
HEMATOCRIT [6]: 45.49%
LEUKOCYTE COUNT [6]: 11.2 x10E3/uL
LYMPHOCYTE [6]: 85.54%
MEAN CORPUSCULAR HEMOGLOBIN [6]: 18.71 pg
MEAN CORPUSCULAR HEMOGLOBIN CONCENTRATION [6]: 32.56 G/DL
MEAN CORPUSCULAR VOLUME [6]: 57.51 fL
MONOCYTE [6]: 1.65%
NEUTROPHIL [6]: 10.78%
PLATELET COUNT [6]: 1410.8 x10E3/uL
CARBON DIOXIDE [5]: 25 mmol/L
CHLORIDE [5]: 108.6 MEQ/L
ALANINE AMINOTRANSFERASE [6]: 33.3 u/L
ALBUMIN [6]: 3.51 G/DL
ALKALINE PHOSPHATASE [6]: 144.9 u/L
ASPARTATE AMINOTRANSFERASE [6]: 73.8 u/L
BLOOD UREA NITROGEN [6]: 12.7 mg/dL
CHLORIDE [6]: 107.3 MEQ/L
CHOLESTEROL [6]: 48.9 mg/dL
CREATINE PHOSPHOKINASE [6]: 237.4 u/L
CREATININE [6]: 0.61 mg/dL
GLUCOSE [6]: 141.1 mg/dL
LACTATE DEHYDROGENASE [6]: 100.8 u/L
LIPASE [6]: 13.2 u/L
PHOSPHORUS [6]: 9.57 mg/dL
POTASSIUM [6]: 6.28 MEQ/L
SODIUM [6]: 150 MEQ/L
TOTAL BILIRUBIN [6]: 0.2 mg/dL
TOTAL PROTEIN [6]: 6.4 G/DL
URIC ACID [6]: 1.22 mg/dL
